In patent US20260250318A1, “COMPOSITIONS AND METHODS FOR CROSSING THE BLOOD BRAIN BARRIER” (VOYAGER THERAPEUTICS, INC., priority 2022, published 2026):

Experiments:
Settings in all cases: synthetic library passage 3, intravenous, relative to wild-type AAV9
brain [1] = assay: NGS fold enrichment of synthetic library (passage 3) in C57Bl/6 mice, first cross-species screen; assay type: in vivo
Procedure, shortened: (§1)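 Fold enrichment versus wild-type AAV9 was derived by NGS of RT-PCR-amplified RNA from nervous tissue, collected e.g. 28 days after IV dosing […]. The library (passage 3) was given to two NHPs aged 2-4 years and to 6-8-week BALB/c and C57Bl/6 mice (n=3 each).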

brain [2] = assay: NGS fold enrichment of synthetic library (passage 3) in BALB/c mice, first cross-species screen; assay type: in vivo
Procedure, shortened: as §1

[3] = tested on: brain, spinal cord, and DRG of the NHPs; assay: NGS fold enrichment of synthetic library (passage 3) in NHPs, first cross-species screen; assay type: in vivo, cynomolgus macaques (Macaca fascicularis)
Procedure, shortened: as §1

[4] = RNA from brain of C57Bl/6 mice, NGS
[5] = RNA from brain of BALB/c mice, NGS
[6] = RNA from spinal cord of NHPs, NGS

Sequence | Fold enrichment over AAV9 in the brain of Mice (C57Bl/6) (brain [1]; [4]) | Fold enrichment over AAV9 in the brain of Mice (BALB/c) (brain [2]; [5]) | Fold enrichment over AAV9 in the brain of NHPs ([3]; RNA from brain of NHPs, NGS) | Fold enrichment over AAV9 in the spinal cord of NHPs [3, 6] | Fold enrichment over AAV9 in the brain of Mice (C57Bl/6) (brain [1]; RNA NGS, brain of C57Bl/6 mice) | Fold enrichment over AAV9 in the brain of Mice (BALB/c) (brain [2]; RNA NGS, brain of BALB/c mice) | Fold enrichment over AAV9 in the brain of NHPs ([3]; RNA NGS, brain of NHPs) | Fold enrichment over AAV9 in the spinal cord of NHPs ([3]; RNA NGS, spinal cord of NHPs)
GSGQNQHSLPAHRT | 0.911 fold | 0.742 fold | 1.361 fold | 0.700 fold | – | – | – | –
GMRTYHLSGQNQQT | – | – | – | – | 2.033 fold | 1.586 fold | 9.241 fold | 1.939 fold
GAFHLAASGQNQQT | 0.994 fold | 0.775 fold | 1.369 fold | 18.165 fold | – | – | – | –
GSGIIPVSSQNQQT | – | – | – | – | 0.642 fold | 0.253 fold | 6.352 fold | 0.000 fold
GSGQNTGQHMMQQT | – | – | – | – | 1.147 fold | 0.917 fold | 1.090 fold | 1.058 fold
GSGQNPSFMRGQQT | 1.293 fold | 1.094 fold | 1.252 fold | 1.454 fold | – | – | – | –
GSGQNQQGTLLHQT | – | – | – | – | 1.347 fold | 1.303 fold | 1.728 fold | 2.065 fold
GSGIGSHIPQNQQT | 0.822 fold | 0.597 fold | 1.319 fold | 0.173 fold | – | – | – | –
GNGLYAVSGQNQQT | – | – | – | – | 0.322 fold | 0.213 fold | 2.611 fold | 9.148 fold
GSGQNQQTSVGFRT | – | – | – | – | 0.648 fold | 0.534 fold | 1.077 fold | 3.737 fold
GSGQVVGLSGNQQT | – | – | – | – | 0.785 fold | 0.881 fold | 2.052 fold | 7.212 fold
GSGHMTYREKNQQT | – | – | – | – | 1.257 fold | 0.540 fold | 2.633 fold | 5.267 fold
GSGFLSDTRQNQQT | – | – | – | – | 0.473 fold | 0.575 fold | 1.566 fold | 45.953 fold
GSGQNQQVHLSTGT | – | – | – | – | 1.011 fold | 0.455 fold | 1.811 fold | 0.266 fold
GSGQTQVLKSNQQT | – | – | – | – | 1.599 fold | 0.975 fold | 1.640 fold | 3.031 fold
GMGRHSASGQNQQT | – | – | – | – | 0.470 fold | 0.389 fold | 1.417 fold | 6.500 fold

Sequence | Fold enrichment over AAV9 in the brain of Mice (C57Bl/6) (brain [1]; [4]) | Fold enrichment over AAV9 in the brain of Mice (BALB/c) (brain [2]; [5]) | Fold enrichment over AAV9 in the brain of NHPs ([3]; RNA from brain of NHPs, NGS) | Fold enrichment over AAV9 in the spinal cord of NHPs [3, 6] | Fold enrichment over AAV9 in the brain of Mice (C57Bl/6) (brain [1]; RNA NGS, brain of C57Bl/6 mice) | Fold enrichment over AAV9 in the brain of Mice (BALB/c) (brain [2]; RNA NGS, brain of BALB/c mice) | Fold enrichment over AAV9 in the brain of NHPs ([3]; RNA NGS, brain of NHPs) | Fold enrichment over AAV9 in the spinal cord of NHPs ([3]; RNA NGS, spinal cord of NHPs)
GSGQNQRASILVQT | 0.531 fold | 0.569 fold | 1.162 fold | 3.632 fold | – | – | – | –
GRVLHSHAGQNQQT | – | – | – | – | 1.294 fold | 0.908 fold | 2.513 fold | 0.826 fold
GRMFSLGSGQNQQT | – | – | – | – | 1.630 fold | 1.174 fold | 1.836 fold | 8.429 fold
GSGPWSAGLQNQQT | – | – | – | – | 0.700 fold | 0.539 fold | 1.067 fold | 0.947 fold
GSGSPHPSRQNQQT | – | – | – | – | 1.869 fold | 0.975 fold | 3.017 fold | 1.993 fold
GSGIPSVKFQNQQT | 0.364 fold | 0.561 fold | 1.281 fold | 0.061 fold | – | – | – | –
GSGQNQQPSAFSKT | 1.309 fold | 0.754 fold | 1.220 fold | 4.906 fold | – | – | – | –
GSLVSTQSGQNQQT | 1.282 fold | 0.650 fold | 1.305 fold | 1.293 fold | – | – | – | –
GSGNPHVRNQNQQT | – | – | – | – | 0.732 fold | 0.755 fold | 1.112 fold | 0.873 fold
GSLHHDNHGQNQQT | – | – | – | – | 0.968 fold | 0.463 fold | 1.976 fold | 0.980 fold
GSQSTLGLGQNQQT | 0.594 fold | 0.400 fold | 1.204 fold | 3.246 fold | – | – | – | –
GSGDRYQTLQNQQT | – | – | – | – | 0.645 fold | 0.318 fold | 1.897 fold | 1.075 fold
GSGQVHNPTQNQQT | 1.021 fold | 0.542 fold | 1.410 fold | 2.488 fold | – | – | – | –
GSSHRFYGGQNQQT | – | – | – | – | 0.787 fold | 0.110 fold | 4.732 fold | 0.000 fold
GSSPAPNSGQNQQT | – | – | – | – | 0.719 fold | 0.368 fold | 1.106 fold | 2.229 fold
GSGQLPQSGLNQQT | 0.641 fold | 0.318 fold | 1.218 fold | 1.504 fold | – | – | – | –
